Measured values published in patent publication US20130071874A1, “SYSTEM AND METHOD FOR ANTI-CANCER DRUG CANDIDATE EVALUATION” (priority 2010, published 2013).

How the values were obtained:
[1] = tested on: ovarian cancer cell line, CAOV-3; experiment: MiCK-type apoptosis drug screening assay, CAOV-3; format: cell-based; details: CAOV-3 cells; as Example 1 but with higher drug concentrations
Source text: (§1) KU=(VmaxDrug Treated−VmaxControl)×60×y/(ODcell−ODblank).
(§2) Vmax is the maximum kinetic rate, which is the slope of the steep increase in the OD v. time plot when cells are undergoing apoptosis. Vmax in this equation is given in milli-optical density units/hour (mOD/h). ODcell is the initial OD of the control containing cells and ODblank is the initial OD of a blank well containing only medium or medium and drug (the drug may be omitted for some drugs, but for colored drugs in particular it may be included in the blank). y is a coefficient dependent on the cell type being assayed and may be determined experimentally through observation of the cell lines. Further information regarding this equation may be found in Kravtsov et al.
Cancer cells were obtained from exponentially growing cultures in RPMI 1640 medium without phenol red supplemented with 10% heat-inactivated fetal bovine serum, 100 U/ml penicillin and 100 μg/mL streptomycin (complete medium) in humidified air with 5% CO2 at 37° C. Cells were harvested, washed with pre-warmed medium and resuspended in complete medium. Appropriate cell counts and viability were tested.
Cells from each cell line in complete medium were placed in wells of a 96-well plate at a concentration of 2 to 5×10^5 cells/ml. Various dilutions of the drug candidate, Idarubicin, were added to the wells in 5 μL aliquots. Final concentrations for the drug candidate were 0.01, 0.1, 0.5, 1, 5, 10 and 20 μM. The plates were incubated at 37° C. for 30 minutes in a humidified 5% CO2 atmosphere. After this adjustment period, 30 μl of sterile mineral oil was layered on top of each well. The microtiter plate was placed in an incubated spectrophotometer chamber (37° C.) and OD at 600 nm was measured every 5 minutes for a period of 48 hours. The reader was calibrated to zero absorbance using well containing only complete medium and no cells. All tests were performed in triplicate.
Data acquisition and computation was performed using appropriate software. OD readings were plotted against time to provide a kinetic representation of cell responses to the drugs and drug candidate. Kinetic units were calculated for each test well. A kinetic unit below three was considered a negative response and above 3 was considered a positive response. A kinetic unit between 1.5 and 3 was considered a marginal response.
A variety of anti-cancer drugs were tested against a single ovarian cancer cell line, CAOV-3, to determine their suitability for use against ovarian cancer. Tests were performed in a manner similar to those in Example 1, but with higher drug concentrations.

[2] = tested on: MOLT-3, an acute T-cell lymphoblastic leukemia; experiment: MiCK-type apoptosis drug screening assay (OD 600 nm, kinetic units), MOLT-3; format: cell-based, human; details: MOLT-3 cells; 0.01-20 μM
Source text: as §1
as §2, with “al. […]” for “al.”
(§3) Cells from each cell line in complete medium were placed in wells of a 96-well plate at a concentration of 2 to 5×10^5 cells/ml. […] The microtiter plate was placed in an incubated spectrophotometer chamber (37° C.) and OD at 600 nm was measured every 5 minutes for a period of 48 hours. The reader was calibrated to zero absorbance using well containing only complete medium and no cells. […]
(§4) Data acquisition and computation was performed using appropriate software. OD readings were plotted against time to provide a kinetic representation of cell responses to the drugs and drug candidate. Kinetic units were calculated for each test well. […]

[3] = tested on: RAMOS, a B cell line derived from Burkitt's lymphoma; experiment: MiCK-type apoptosis drug screening assay (OD 600 nm, kinetic units), RAMOS; format: cell-based, human; details: 0.01-20 μM
Source text: as §1
as §2, with “al. […]” for “al.”
as §3, §4

SMILES | response / suitability (in words) [1] | kinetic unit readings versus concentration (in words) [2] | response versus concentration (in words) [3]
COc1cccc2c1C(=O)c1c(O)c3c(c(O)c1C2=O)C[C@@](O)(C(C)=O)C[C@@H]3O[C@H]1C[C@H](N)[C@H](O)[C@H](C)O1 [Daunorubicin] | positive response at reasonable concentrations | – | –
CC(=O)[C@]1(O)Cc2c(O)c3c(c(O)c2[C@@H](O[C@H]2C[C@H](N)[C@H](O)[C@H](C)O2)C1)C(=O)c1ccccc1C3=O [Idarubicin, 4-demethoxydaunorubicin] | positive response at reasonable concentrations | higher kinetic unit readings at lower concentrations | positive response was seen in the Ramos cell line only at high concentrations
CCc1c2c(nc3ccc(OC(=O)N4CCC(N5CCCCC5)CC4)cc13)-c1cc3c(c(=O)n1C2)COC(=O)[C@]3(O)CC [Irinotecan] | need to use high concentrations of the drug to achieve a positive response | – | –
CO[C@@]12[C@H](COC(N)=O)C3=C(C(=O)C(C)=C(N)C3=O)N1C[C@@H]1N[C@@H]12 [Mitomycin] | positive response at reasonable concentrations | – | –
O=C1c2c(O)ccc(O)c2C(=O)c2c(NCCNCCO)ccc(NCCNCCO)c21 [Mitoxantrone] | positive response at reasonable concentrations | – | –
O=C1[O][Pt]2([NH][C@@H]3CCCC[C@H]3[NH]2)[O]C1=O [Oxaliplatin] | not suitable drugs for treating ovarian cancer | – | –
CCC1=C[C@@H]2CN(C1)Cc1c([nH]c3ccccc13)[C@@](C(=O)OC)(c1cc3c(cc1OC)N(C)[C@H]1[C@@](O)(C(=O)OC)[C@H](OC(C)=O)[C@]4(CC)C=CCN5CC[C@]31[C@@H]54)C2 [Vinorelbine] | not suitable drugs for treating ovarian cancer | – | –
